Source: article PMC10545747, “Development of cyclopeptide inhibitors of cGAS targeting protein-DNA interaction and phase separation” (Nature Communications, 2023)
Values joined by “and” are separate entries in the source; they are usually repeats but may differ in a detail not shown here. Equal entries are not always repeated. Square brackets hold non-standard residues; d marks the D form. Peptide text beside a SMILES is read from it.

Assays:
[1] = tested on: TREX1 knockdown THP1 cells; assay: qPCR of IFNB1 and CXCL10 mRNA after TREX1 siRNA; assay type: cell-based, human
Method: (§1) The indicated cells were stimulated with either ISD (Sangon Biotech), HSV-1 (Provided by Dr. Zhengfan Jiang), HSV60mer (Sangon Biotech), SATE-cddA[70], 2’3’-cGAMP (Invivogen, Cat# tlrl-nacga23-1), ADU-S100 (MedChemExpress, Cat# HY-12885A) or Poly(I:C) (Invivogen, Cat# tlrl-pic) after XQ2 or XQ2B treatment. Total RNA was isolated from indicated cells that incubated with the drugs for indicated time or mice tissues by using NucleoZOL reagent (MACHEREY-NAGEL) according to the manufacturer’s instructions. The quantifications of mRNA levels were carried out by real-time PCR using a PerfectStart® Uni RT&qPCR Kit (TransGen Biotech) on the QuantStudio 5 qPCR machine (Applied Biosystems). Samples were carried out in triplicate and the target CT values were normalized to GAPDH CT values. Primers of qPCR used in this study can be found in Supplementary Table S2.
siRNA of TREX1 (siTREX1) was transfected into the indicated cells by Lipofectamine RNAiMAX (Invitrogen) according to the manufacturer’s instructions. Human siTREX1, mouse siTrex1 and negative control siRNAs were purchased from Sangon Biotech. The sequences of siRNAs oligonucleotides can be found in Supplementary Table S2.
Supplementary Fig. 9. XQ2B reduces interferon expression induced by Trex1 deficiency. […]
TREX1 knockdown THP1 cells were treated with DMSO or XQ2B (10 μM) for 24 h, and the mRNA levels of TREX1
(e), IFNB1 and CXCL10 (f) were measured by qPCR. (e) p < 0.0001, (f) p = 0.0001 (Ifnb1); p = 0.0157 (Cxcl10). Data
Source data are provided as a Source Data file.

[2] = tested on: HSV-1-infected WT mice; assay: HSV-1 infection of WT mice (serum ELISA, brain qPCR, IHC); assay type: in vivo, mouse; set-up: brain HSV-1 mRNA, qPCR, Fig. 6d / brain HSV-1(UL5) mRNA, qPCR, Fig. 6d: unit not given here
Method: Fig. 6 XQ2B attenuates the host innate antiviral response in vivo. a Chemical structure of XQ2 and XQ2B. b, c WT mice (n = 7) were injected intravenously with DMSO or XQ2B (10 mg/kg) for 3 h, and then administrated intravenously with HSV-1 at 1 × 10^7 pfu per mouse for 6 h. Serum from mice was collected for ELISA analysis of the levels of IFN-β (b) and CXCL10 (c). p = 0.0013 (b); p = 0.0175 (c). d Brains from mice (n = 6) in (b, c) were collected for qPCR analysis of the induction of HSV-1 and HSV-1(UL5) mRNA. p = 0.0287 (HSV-1); p = 0.0136 (HSV1-UL5). e Brains from mice in (b, c) were collected for immunohistochemistry (IHC) analysis with an anti-HSV-1 antibody. Tissue sections were visualized using microscopy. Scale bar, 25 μm. Data are representative of two independent experiments in (b–e). […] Source data are provided as a Source Data file.
as §1
THP1 cells were seeded into 96-well plates, and cell culture supernatants were collected and analyzed by ELISA kits for human IFNβ levels (R&D Systems, Cat# DY814-05) and human CXCL10 levels (R&D Systems, Cat# DY266-05) according to the manufacturer’s instructions. Mice serum was collected and analyzed by ELISA kits for mouse IFNβ levels (R&D Systems, Cat# DY8234-05) and mouse CXCL10 levels (R&D Systems, Cat# DY466-05) according to the manufacturer’s protocols.
Tissues were resected and fixed successively in 4% paraformaldehyde, and embedded in paraffin according to the standard procedure, and then sectioned into 10-μm slices and placed on positively charged microscope slides. Sections of the brain were subjected to immunohistochemical (IHC) staining with an anti-HSV-1 antibody (Abcam, 1:100) and HRP-conjugated anti-rabbit IgG antibody (Cell Signaling, Cat# 7074, 1:200) according to standard procedures. Sections of the heart, stomach, tongue, kidney and muscle were stained with hematoxylin and eosin. Tissue sections were visualized using an Olympus IX73 microscope (20× Objective).

[3] = in vivo; conditions: C57BL/6, mouse, iv, 10 mg/kg
Method: Whole blood samples were collected in EDTA-K2 surface-coated tubes at 0.083, 0.25, 0.5, 1, 2, 5, 7, 24 h post administration. The results were analyzed by LC-MS.

[4] = tested on: Hela cells; assay: HSV-1 cytopathogenic effect, CCK-8 viability (rebuttal Fig. R1); assay type: cell-based, human; conditions: 10 μM
Method: We tested the effect of XQ2 on human cervical cancer
HSV-1 infection given that epithelial cells are generally weak responders of cGAS-
cells and THP1 cells were pretreated for 3 h with DMSO or XQ2 (10 μM), followed by
the indicated titer of HSV-1 infection. The cell v iability was measured by CCK-8 assay.

[5] = XQ2B 10 mg/kg i.v., individual mice

SMILES | Relative mRNA level Cxcl10 ([1]; Fig. S9f, TREX1 knockdown (siTREX1 +) THP1 cells, XQ2B +, individual replicates, siTREX1 alone 2.64-3.32) | Relative mRNA level Ifnb1 ([1]; Fig. S9f, TREX1 knockdown (siTREX1 +) THP1 cells, XQ2B +, individual replicates, siTREX1 alone 15.6-16.4) | expression of Ifnb1, Cxcl10 with Trex1-siRNA ([1]; THP1, 10 μM, 24 h) | production of IFN-β and CXCL10 upon HSV-1 infection in mice ([2]; 10 mg/kg intravenous) | virus infection in brain tissues of mice ([2]; 10 mg/kg intravenous) | serum IFN-β, ELISA, Fig. 6b ([2]; XQ2B 10 mg/kg i.v. 3 h before HSV-1 1 × 10^7 pfu i.v., 6 h, individual mice) | serum CXCL10, ELISA, Fig. 6c ([2]; XQ2B 10 mg/kg i.v., HSV-1 6 h, individual mice) | brain HSV-1(UL5) mRNA, qPCR, Fig. 6d [2, 5] | brain HSV-1 mRNA, qPCR, Fig. 6d [2, 5] | half-life [3] | level at 0.083 h ([3]; Conc (ng/ml), Fig. S11a) | level at 0.25 h ([3]; Conc (ng/ml), Fig. S11a) | level at 0.5 h ([3]; Conc (ng/ml), Fig. S11a) | HSV-1 cytopathogenic effect in Hela cells [4]
CC(C)C[C@@H]1NC(=O)[C@H](CCCNC(=N)N)NC(=O)[C@H](C(C)C)NC(=O)[C@@H]2CCCN2C(=O)[C@@H](Cc2ccccc2)NC(=O)[C@H](CC(C)C)NC(=O)[C@H](CCCNC(=N)N)NC(=O)[C@H]([C@@H](C)O)NC(=O)[C@H](C)NC(=O)[C@@H](Cc2ccccc2)NC1=O [XQ2B] (cyclo([dF]ATRL[dF]PVRL)) | 2.255 and 1.956 and 2.174 | 8.9487 and 8.582 and 9.951 | markedly inhibited the expression of these genes in mouse L929 and human THP1 cells with Trex1-siRNA | significantly impaired the production of IFN-β and CXCL10 upon HSV-1 infection in mice | promoted virus infection in the brain tissues of mice | 234.609 and 247.685 and 151.05 and 229.558 and 128.472 and 521.967 and 514.758 | 2266.42 and 1272.19 and 1516.42 and 1969.73 and 1635.92 and 1666.83 and 2034.41 | 2.362 and 11.4426 and 5.671 and 29.1839 and 18.1733 and 12.9008 | 4.055 and 17.5547 and 15.5667 and 41.0988 and 9.75 and 4.86 | 66 min | 101 µg/mL | 63.6 µg/mL | 50.4 µg/mL | 
CC(C)C[C@@H]1NC(=O)[C@H](CCCNC(=N)N)NC(=O)[C@H](C(C)C)NC(=O)[C@@H]2CCCN2C(=O)[C@@H](Cc2ccccc2)NC(=O)[C@H](CC(C)C)NC(=O)[C@H](CCCNC(=N)N)NC(=O)[C@H](C(C)C)NC(=O)[C@H](C)NC(=O)[C@@H](Cc2ccccc2)NC1=O [XQ2, Cyclo (LfAVRLfPVR)] (cyclo(L[dF]AVRL[dF]PVR)) |  |  |  |  |  |  |  |  |  |  |  |  |  | further enhanced the CPE
